Assay results: patent publication US10221167B2, “Hydroxyalkylamine- and hydroxycycloalkylamine-substituted diamine-arylsulfonamide compounds with selective activity in voltage-gated sodium channels” (Merck Sharp & Dohme Corp., priority 2015, dated 2019)

Key:
[1] = target: T1, human Nav1.5 channels stably expressed in HEK 293 cells (Homo sapiens, UniProt Q14524); assay: IonWorks Quattro automated patch-clamp, Nav1.5 (selectivity ratio versus Nav1.7); type: cell-based; details: selectivity for Nav1.7 over Nav1.5, inactivated state block
T1 construct: expressed in transfected cells
Method: (§1) Compounds were tested on human Nav1.7 and Nav1.5 channels stably expressed in HEK 293 cells. […] Cells were sealed on a planar substrate using the Population Patch Plate (PPC) technology. Electrical access was obtained using both nystatin and amphotericin. A double-pulse protocol was used for the determination of IC50 values for inactivated state block. Nav1.7 and Nav1.5 expressing cells were voltage clamped at −100 mV and −110 mV, respectively. A depolarizing prepulse to −10 mV (Nav1.7) or −30 mV (Nav1.5) for 1000 ms followed by a 10 ms repolarization to −100 mV (Nav1.7) or −110 mV (Nav1.5) was given to generate fractional channel inactivation of ˜50%, followed by a 10 ms test pulse to −10 mV (Nav1.7) or −30 mV (Nav1.5) to measure peak current in control conditions and after compound addition. The following recording solutions were used (mM). External: 150 NaCl, 2 CaCl2, 5 KCl, 1 Mg Cl2, 10 HEPES, 12 Dextrose; internal: 120 CsF, 30 CsCl, 10 EGTA, 5 HEPES, 5 NaF, 2 MgCl2.
(§2) For all electrophysiology experiments, offline analysis was used to determine percent inhibition as a function of drug concentration. IC50 values were determined by fitting to the Hill equation.
(§3) The various compounds in Examples 1 through 4 and Tables 1 through 3 exemplified above were assayed for activity and selectivity using the foregoing IonWorks® technique. The results are reported in the following paragraph in a format expressing the identification of the compound with reference Example and compound (e.g. Ex 1-1 is Example 1, compound 1) followed by the observed potency in nM and the ratio of Nav1.7 potency:Nav 1.5 potency as described here. […]

[2] = target: T2, human Nav1.7 channels stably expressed in HEK 293 cells (Homo sapiens, UniProt Q15858); assay: IonWorks Quattro automated patch-clamp, state-dependent inhibition of Nav1.7; type: cell-based; details: inactivated state block, double-pulse protocol, holding -100 mV, read-out: potency for the Nav 1.7 sodium ion channel (as measured by IonWorks)
T2 construct: expressed in transfected cells
Method: as §1, §2, §3

T1 sequence (Q14524 whole entry): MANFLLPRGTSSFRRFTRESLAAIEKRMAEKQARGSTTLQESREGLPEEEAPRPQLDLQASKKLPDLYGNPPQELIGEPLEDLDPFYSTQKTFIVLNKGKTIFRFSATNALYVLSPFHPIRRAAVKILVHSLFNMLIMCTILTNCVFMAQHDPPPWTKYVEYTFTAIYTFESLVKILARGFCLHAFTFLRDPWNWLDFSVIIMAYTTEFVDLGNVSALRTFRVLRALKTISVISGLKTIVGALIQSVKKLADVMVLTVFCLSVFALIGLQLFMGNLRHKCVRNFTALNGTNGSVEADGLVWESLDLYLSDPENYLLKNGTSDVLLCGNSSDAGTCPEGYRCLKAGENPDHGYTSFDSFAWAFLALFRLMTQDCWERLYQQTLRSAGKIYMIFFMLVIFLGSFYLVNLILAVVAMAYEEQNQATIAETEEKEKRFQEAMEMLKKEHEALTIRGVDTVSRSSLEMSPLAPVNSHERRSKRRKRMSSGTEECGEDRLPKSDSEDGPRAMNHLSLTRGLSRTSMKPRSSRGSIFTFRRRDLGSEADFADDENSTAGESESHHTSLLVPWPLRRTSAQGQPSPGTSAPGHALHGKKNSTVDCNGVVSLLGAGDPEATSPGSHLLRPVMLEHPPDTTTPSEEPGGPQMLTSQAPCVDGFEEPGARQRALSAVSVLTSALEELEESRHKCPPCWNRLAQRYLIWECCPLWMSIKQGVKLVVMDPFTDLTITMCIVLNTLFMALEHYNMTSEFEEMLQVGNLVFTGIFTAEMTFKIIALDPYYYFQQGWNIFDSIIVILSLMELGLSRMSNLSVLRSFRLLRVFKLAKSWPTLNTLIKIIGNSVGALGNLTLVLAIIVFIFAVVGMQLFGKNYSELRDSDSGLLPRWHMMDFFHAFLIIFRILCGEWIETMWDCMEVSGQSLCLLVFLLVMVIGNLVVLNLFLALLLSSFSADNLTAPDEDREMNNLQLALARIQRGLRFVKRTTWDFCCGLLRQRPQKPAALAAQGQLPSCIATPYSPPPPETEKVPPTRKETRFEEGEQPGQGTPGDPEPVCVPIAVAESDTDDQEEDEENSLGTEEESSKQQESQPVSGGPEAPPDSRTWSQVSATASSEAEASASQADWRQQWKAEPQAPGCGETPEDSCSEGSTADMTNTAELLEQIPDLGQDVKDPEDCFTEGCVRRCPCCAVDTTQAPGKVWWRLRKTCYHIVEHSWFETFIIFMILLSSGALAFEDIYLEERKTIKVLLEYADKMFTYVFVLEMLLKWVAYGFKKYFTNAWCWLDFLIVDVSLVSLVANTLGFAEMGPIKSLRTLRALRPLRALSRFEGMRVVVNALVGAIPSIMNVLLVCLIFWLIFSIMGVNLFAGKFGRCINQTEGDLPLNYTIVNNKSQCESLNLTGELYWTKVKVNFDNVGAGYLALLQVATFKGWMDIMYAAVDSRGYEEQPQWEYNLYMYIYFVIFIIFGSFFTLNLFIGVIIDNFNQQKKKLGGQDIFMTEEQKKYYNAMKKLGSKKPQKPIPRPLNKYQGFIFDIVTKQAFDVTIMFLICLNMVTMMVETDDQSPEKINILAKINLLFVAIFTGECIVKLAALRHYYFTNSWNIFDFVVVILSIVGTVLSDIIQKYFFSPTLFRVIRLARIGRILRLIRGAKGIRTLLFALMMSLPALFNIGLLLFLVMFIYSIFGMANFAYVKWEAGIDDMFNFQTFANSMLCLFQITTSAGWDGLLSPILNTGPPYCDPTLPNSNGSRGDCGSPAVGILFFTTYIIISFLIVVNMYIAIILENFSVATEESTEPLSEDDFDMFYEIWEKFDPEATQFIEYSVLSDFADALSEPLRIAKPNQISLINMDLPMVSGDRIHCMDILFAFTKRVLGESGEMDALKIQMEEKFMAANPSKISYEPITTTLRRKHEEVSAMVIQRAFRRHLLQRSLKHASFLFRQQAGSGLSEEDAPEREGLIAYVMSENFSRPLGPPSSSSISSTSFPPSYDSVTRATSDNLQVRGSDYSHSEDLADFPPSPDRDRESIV
T2 sequence (Q15858 whole entry): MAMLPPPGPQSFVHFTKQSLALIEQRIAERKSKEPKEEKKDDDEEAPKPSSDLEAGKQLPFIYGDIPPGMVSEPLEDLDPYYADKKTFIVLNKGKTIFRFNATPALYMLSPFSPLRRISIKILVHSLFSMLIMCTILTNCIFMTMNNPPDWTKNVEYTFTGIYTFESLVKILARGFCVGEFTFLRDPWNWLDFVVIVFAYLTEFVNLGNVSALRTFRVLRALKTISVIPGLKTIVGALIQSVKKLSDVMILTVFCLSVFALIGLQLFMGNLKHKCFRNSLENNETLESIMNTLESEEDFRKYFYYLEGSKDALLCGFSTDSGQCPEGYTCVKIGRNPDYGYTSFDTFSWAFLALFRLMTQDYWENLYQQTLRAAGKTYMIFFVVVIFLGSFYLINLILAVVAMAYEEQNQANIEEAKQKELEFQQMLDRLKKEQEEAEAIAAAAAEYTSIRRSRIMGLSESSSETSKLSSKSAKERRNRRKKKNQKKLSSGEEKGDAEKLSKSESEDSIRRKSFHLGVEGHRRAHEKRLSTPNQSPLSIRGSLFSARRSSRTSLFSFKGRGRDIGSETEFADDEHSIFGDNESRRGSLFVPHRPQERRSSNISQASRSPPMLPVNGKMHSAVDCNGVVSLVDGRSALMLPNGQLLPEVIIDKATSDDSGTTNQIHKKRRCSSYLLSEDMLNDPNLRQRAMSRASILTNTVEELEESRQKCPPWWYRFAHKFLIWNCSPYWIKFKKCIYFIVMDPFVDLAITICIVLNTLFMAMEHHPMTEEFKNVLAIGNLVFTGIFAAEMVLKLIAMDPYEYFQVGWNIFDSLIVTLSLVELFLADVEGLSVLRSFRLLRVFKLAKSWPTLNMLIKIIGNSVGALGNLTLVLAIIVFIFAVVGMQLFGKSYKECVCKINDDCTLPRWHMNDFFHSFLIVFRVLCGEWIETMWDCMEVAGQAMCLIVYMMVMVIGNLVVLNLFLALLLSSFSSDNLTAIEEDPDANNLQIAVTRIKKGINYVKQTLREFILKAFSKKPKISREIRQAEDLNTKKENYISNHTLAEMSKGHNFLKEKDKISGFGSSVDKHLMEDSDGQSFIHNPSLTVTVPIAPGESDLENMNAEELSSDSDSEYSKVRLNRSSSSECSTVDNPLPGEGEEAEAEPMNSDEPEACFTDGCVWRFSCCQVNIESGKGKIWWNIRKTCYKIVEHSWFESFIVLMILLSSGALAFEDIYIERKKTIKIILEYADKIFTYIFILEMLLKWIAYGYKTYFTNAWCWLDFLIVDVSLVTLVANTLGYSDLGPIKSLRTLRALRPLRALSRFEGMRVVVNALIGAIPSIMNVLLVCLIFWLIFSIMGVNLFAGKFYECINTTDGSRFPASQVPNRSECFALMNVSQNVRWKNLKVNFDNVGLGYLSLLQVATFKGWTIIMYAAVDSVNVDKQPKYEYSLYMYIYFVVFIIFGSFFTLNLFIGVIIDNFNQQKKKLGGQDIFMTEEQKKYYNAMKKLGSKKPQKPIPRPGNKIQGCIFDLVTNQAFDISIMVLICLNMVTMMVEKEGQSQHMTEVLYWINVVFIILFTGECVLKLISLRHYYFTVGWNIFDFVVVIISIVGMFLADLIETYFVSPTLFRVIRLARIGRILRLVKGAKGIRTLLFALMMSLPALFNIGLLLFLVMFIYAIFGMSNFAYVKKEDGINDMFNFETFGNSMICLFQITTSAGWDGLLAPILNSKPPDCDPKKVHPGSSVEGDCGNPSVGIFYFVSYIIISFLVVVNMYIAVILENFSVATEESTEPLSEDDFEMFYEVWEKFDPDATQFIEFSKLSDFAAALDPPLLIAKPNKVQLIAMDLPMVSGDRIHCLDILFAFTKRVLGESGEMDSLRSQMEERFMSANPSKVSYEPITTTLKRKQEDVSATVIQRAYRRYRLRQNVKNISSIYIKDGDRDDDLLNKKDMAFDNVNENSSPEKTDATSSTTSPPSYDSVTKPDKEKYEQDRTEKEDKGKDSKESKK

SMILES	ratio of Nav1.7 potency:Nav 1.5 potency [1]	IC50 [2]
NC[C@H](O)CNCCCCNc1cc(F)c(S(=O)(=O)Nc2ncns2)cc1Br [EX 1-7, 4-[(4-{[(2S)-3-amino-2-hydroxypropyl]-amino}butyl)amino]-5-bromo-2-fluoro-N-1,2,4-thiadiazol-5-yl-benzenesulfonamide]	≥ 4714	7 nM
Cc1csc(NS(=O)(=O)c2cc(Cl)c(NCCCCNCC3(O)CNC3)cc2F)n1 [EX 1-9, 5-chloro-2-fluoro-4-[(4-{[(3-hydroxyazetidin-3-yl)methyl]amino}butyl)amino]-N-(4-methyl-1,3-thiazol-2-yl)-benzenesulfonamide]	≥ 600	55 nM
NCC1(O)CN(CCCCNc2cc(F)c(S(=O)(=O)Nc3ncns3)cc2Br)C1 [EX 1-11, 4-((4-(3-(aminomethyl)-3-hydroxyazetidin-1-yl)butyl)amino)-5-bromo-2-fluoro-N-(1,2,4-thiadiazol-5-yl)benzenesulfonamide]	≥ 5000	6.6 nM
O=S(=O)(Nc1ncns1)c1cc(Cl)c(NCCCCNCC2(O)CNC2)cc1F [EX 2-1, 5-chloro-2-fluoro-4-[(4-{[(3-hydroxyazetidin-3-yl)methyl]amino}butyl)amino]-N-1,2,4-thiadiazol-5-ylbenzenesulfonamide]	≥ 2063	16 nM
O=S(=O)(Nc1ncns1)c1cc(Cl)c(NCCCCNCCNCCO)cc1F [EX 2-4, 5-chloro-2-fluoro-4-{[4-({2-[(2-hydroxyethyl)amino]ethyl}amino)butyl]amino}-N-1,2,4-thiadiazol-5-ylbenzenesulfonamide]	≥ 943	35 nM
O=S(=O)(Nc1ncc(F)s1)c1cc(Cl)c(NCCCCNCC2(O)CNC2)cc1F [EX 2-6, 5-chloro-2-fluoro-N-(5-fluoro-1,3-thiazol-2-yl)-4-[(4-{[(3-hydroxyazetidin-3-yl)methyl]amino}butyl)amino] benzenesulfonamide]	≥ 2357	14 nM
O=S(=O)(Nc1ncc(F)s1)c1cc(Cl)c(NCCCCNCCNCCO)cc1F [EX 2-9, 5-chloro-2-fluoro-N-(5-fluoro-1,3-thiazol-2-yl)-4-{[4-({2-[(2-hydroxyethyl)amino]ethyl}amino)butyl]amino} benzenesulfonamide]	≥ 1138	29 nM
O=S(=O)(Nc1ncc(F)s1)c1cc(Cl)c(NCCCCN[C@H]2CNC[C@@H]2O)cc1F [EX 2-16, 5-chloro-2-fluoro-N-(5-fluoro-1,3-thiazol-2-yl)-4-[(4-{[(3S,4S)-4-hydroxypyrrolidin-3-yl]amino}butyl)amino] benzenesulfonamide]	≥ 1031	32 nM
O=S(=O)(Nc1ncc(F)s1)c1cc(Cl)c(NCCCCNC[C@@H]2C[C@H](O)CN2)cc1F [EX 2-21, 5-chloro-2-fluoro-N-(5-fluoro-1,3-thiazol-2-yl)-4-{[4-({[(2S,4S)-4-hydroxypyrrolidin-2-yl]methyl}amino)butyl]amino} benzenesulfonamide]	≥ 344	32 nM
O=S(=O)(Nc1ncc(F)s1)c1cc(Cl)c(NCCCCNC[C@@H]2C[C@@H](O)CN2)cc1F [EX 2-22, 5-chloro-2-fluoro-N-(5-fluoro-1,3-thiazol-2-yl)-4-{[4-({[(2S,4R)-4-hydroxypyrrolidin-2-yl]methyl}amino)butyl]amino} benzenesulfonamide]	≥ 942	35 nM
NC[C@@H](CO)NCCCCNc1cc(F)c(S(=O)(=O)Nc2ncc(F)s2)cc1Cl [EX 2-36, 4-[(4-{[(1S)-2-amino-1-(hydroxymethyl)ethyl]amino}butyl)amino]-5-chloro-2-fluoro-N-(5-fiuoro-1,3-thiazol-2-yl)benzenesutfonamide]	≥ 1375	24 nM
NC[C@@H](CO)NCCCCNc1cc(F)c(S(=O)(=O)Nc2ncns2)cc1Cl [EX 2-37, 4-[(4-{[(1S)-2-amino-1-(hydroxymethyl)ethyl]amino}butyl)amino]-5-chloro-2-fluoro-N-1,2,4-thiadiazol-5-ylbenzenesulfonamide]	≥ 1222	27 nM
NC[C@H](CO)NCCCCNc1cc(F)c(S(=O)(=O)Nc2nccs2)cc1Cl [EX 2-39, 4-[(4-{[(1R)-2-amino-1-(hydroxymethyl)ethyl)amino}butyl)amino]-5-chloro-2-fluoro-N-1,3-thiazol-2-ylbenzenesulfonamide]	≥ 550	60 nM
NC[C@H](CO)NCCCCNc1cc(F)c(S(=O)(=O)Nc2ncns2)cc1Cl [EX 2-41]	≥ 655	29 nM
O=S(=O)(Nc1ncns1)c1cc(Br)c(NCCCCN[C@@H]2CNC[C@H]2O)cc1F [EX 2-44, 5-bromo-2-fluoro-4-((4-(((3R,4R)-4-hydroxypyrrolidin-3-yl)amino)butyl)amino)-N-(1,2,4-thiadiazol-5-yl)benzenesulfonamide]	≥ 1300	25 nM
CC1(O)CN[C@H](CNCCCCNc2cc(F)c(S(=O)(=O)Nc3nccs3)cc2Cl)C1 (stereo partly drawn) [EX 3-1, 5-chloro-2-fluoro-4-((4-((((2S)-4-hydroxy-4-methylpyrrolidin-2-yl)methyl)amino)butyl)amino)-N-(thiazol-2-yl)benzenesulfonamide]	≥ 330	100 nM
